Counter-ions that a name gives are not always drawn. Like-named read-outs stand apart in the source and are kept apart here.
Tests used:
[1] = biological target: T1, neuronal nicotinic acetylcholine receptors (Rattus norvegicus, UniProt P09483+P12390); assay: Binding of [3H]-cytisine to neuronal nicotinic acetylcholine receptors, crude synaptic membranes from whole rat brain
T1 construct: crude synaptic membrane preparations from whole rat brain; from tissue; host or cells: whole rat brain, crude synaptic membranes
T1 sequence (P09483 31-630): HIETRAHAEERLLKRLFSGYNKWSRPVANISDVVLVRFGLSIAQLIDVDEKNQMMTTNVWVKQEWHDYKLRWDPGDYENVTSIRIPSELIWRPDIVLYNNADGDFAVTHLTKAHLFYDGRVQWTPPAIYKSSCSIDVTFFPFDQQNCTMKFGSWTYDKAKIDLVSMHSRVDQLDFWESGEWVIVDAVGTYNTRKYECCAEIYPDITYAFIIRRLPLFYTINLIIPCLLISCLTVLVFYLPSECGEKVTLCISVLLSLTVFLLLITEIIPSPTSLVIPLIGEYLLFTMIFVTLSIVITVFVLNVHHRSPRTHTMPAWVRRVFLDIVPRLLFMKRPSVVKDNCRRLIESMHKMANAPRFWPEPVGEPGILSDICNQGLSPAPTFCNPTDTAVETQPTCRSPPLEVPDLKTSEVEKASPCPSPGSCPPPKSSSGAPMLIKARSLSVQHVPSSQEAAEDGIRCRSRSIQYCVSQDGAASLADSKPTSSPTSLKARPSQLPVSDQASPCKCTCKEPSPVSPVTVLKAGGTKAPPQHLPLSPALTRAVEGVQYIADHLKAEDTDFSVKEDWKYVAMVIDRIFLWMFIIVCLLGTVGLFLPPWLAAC
T1 sequence (P12390 25-500): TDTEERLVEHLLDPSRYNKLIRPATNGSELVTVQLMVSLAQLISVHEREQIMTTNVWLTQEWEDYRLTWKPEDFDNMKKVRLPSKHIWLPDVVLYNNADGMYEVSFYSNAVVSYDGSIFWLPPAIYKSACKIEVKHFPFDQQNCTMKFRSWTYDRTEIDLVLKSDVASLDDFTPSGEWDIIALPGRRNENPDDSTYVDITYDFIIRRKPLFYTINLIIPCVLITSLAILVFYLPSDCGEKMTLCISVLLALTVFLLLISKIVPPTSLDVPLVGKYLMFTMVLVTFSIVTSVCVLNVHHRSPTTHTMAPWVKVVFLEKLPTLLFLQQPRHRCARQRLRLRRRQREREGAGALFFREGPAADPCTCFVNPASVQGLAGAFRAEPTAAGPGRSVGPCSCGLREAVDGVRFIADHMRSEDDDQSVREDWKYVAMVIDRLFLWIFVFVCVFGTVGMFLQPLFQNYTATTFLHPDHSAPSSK
Method: The In Vitro protocols for determination of nicotinic acetylcholine channel receptor binding potencies of ligands were determined as follows.
Washed membranes were stored at −80° C. prior to use. Frozen aliquots were slowly thawed and resuspended in 20 volumes of buffer (containing: 120 mM NaCl, 5 mM KCl, 2 mM MgCl2, 2 mM CaCl2 and 50 mM Tris-Cl, pH 7.4 @[…]). After centrifuging at 20,000×g for 15 minutes, the pellets were resuspended in 30 volumes of buffer.
The test compounds were dissolved in water to make 10 mM stock solutions. Each solution was then diluted (1:100) with buffer (as above) and further taken through seven serial log dilutions to produce test solutions from 10^−5 to 10^−11 M.
Samples were incubated for 60 minutes at 4° C., then rapidly filtered through Whatman GF/B filters presoaked in 0.5% polyethyleneimine using 3×4 mL of ice-cold buffer. The filters are counted in 4 mL of Ecolume® (ICN). Nonspecific binding was determined in the presence of 10 μM (−)-nicotine and values were expressed as a percentage of total binding. IC50 values were determined with the RS-1 (BBN) nonlinear least squares curve-fitting program and IC50 values were converted to Ki values using the Cheng and Prusoff correction (Ki=IC50/(1+[ligand]/Kd of ligand).

Male Sprague-Dawley rats = assay: Formalin test (analgesia); type: in vivo; settings: Rattus norvegicus, ip, intraperitoneally 5 minutes before injection of 50 μL 5% formalin into rear paw, nocifensive behaviors, read-out: (MED) minimally effective dose, formalin test
Method: Another in vivo protocol utilized to determine the effectiveness of nicotinic acetylcholine receptor ligands as analgesic agents was the formalin test.
Male Sprague-Dawley rats (Charles River, Portage, Mich.) weighing 200 to 400 grams were used for all experiments. After a 20 minute period of acclimation to individual cages, 50 μL of a 5% formalin solution was injected subcutaneous into the dorsal aspect of one of the rear paws and the rats were then returned to the clear observation cages suspended above mirror panels. […] Phase 1 of the formalin test was defined as the period of time immediately after injection of formalin until 10 minutes after the formalin injection (i.e., 0-10 minutes after formalin). Phase 2 was defined as the 20 minute period from 30 to 50 minutes after formalin injection. The investigator recorded nocifensive behaviors in the injected paw of four animals during the session by observing each animal for one 15 second observation period during each 1 minute interval. Nocifensive behaviors recorded included flinching, licking or biting the injected paw. In dose-response studies, the test compound (or saline) was administered intraperitoneally 5 minutes before injection of formalin.

Row | Structure (SMILES) | Ki [1] [nM] | minimal effective dose (Male Sprague-Dawley rats) [µmol/kg] | Ki ([1]; [3H]-CYT 1.25 nM, whole rat brain membranes, 60 minutes at 4° C., IC50 converted to Ki by Cheng and Prusoff correction, read-out: Average Ki) [nM]
1 | Clc1ccc(N2C[C@@H]3CN[C@@H]3C2)cn1 (relative stereo) [Example 41, (cis)-3-(6-chloro-3-pyridinyl)-3,6-diazabicyclo[3.2.0]heptane fumarate] | 1.9 | > 1.9 | 
2 | c1cncc(N2C[C@@H]3CCNC[C@@H]32)c1 (relative stereo) [Example 44, (cis)-8-(3-pyridinyl)-3,8-diazabicyclo[4.2.0]octane bis(4-methylbenzenesulfonate)] | 0.23 | 6.2 | 
3 | N#Cc1cncc(N2CC[C@H]3CN[C@H]3C2)c1 (relative stereo) [Example 62, (cis)-5-[3,8-diazabicyclo[4.2.0]oct-3-yl]nicotinonitrile fumarate] | 0.1 | 0.19 | 
4 | C#Cc1cncc(N2C[C@H]3CCN[C@H]3C2)c1 [Example 35, (3aR,6aR)-5-(5-ethynyl-3-pyridinyl)octahydropyrrolo[3,4-b]pyrrole hydrochloride dihydrochloride] | 0.13 | 1.9 | 
5 | Brc1cncc(N2C[C@H]3CCN[C@H]3C2)c1 [Example 36, (3aR,6aR)-5-(5-bromo-3-pyridinyl)octahydropyrrolo[3,4-b]pyrrole dihydrochloride] | 0.17 | 6.2 | 
6 | N#Cc1cncc(N2C[C@H]3CCN[C@H]3C2)c1 [Example 37, 5-((3aR,6aR)-hexahydropyrrolo[3,4-b]pyrrol-5(1H)-yl)nicotinonitrile] | 1.2 | 6.2 | 
7 | c1cncc(N2CC3CNCC32)c1 (stereo not drawn) [Example 40, (cis)-6-(3′-pyridinyl)-3,6-diazabicyclo[3.2.0]heptane fumarate] | 6.2 | 1.9 | 
8 | COc1cc(N2C[C@H]3CCN[C@H]3C2)cnc1Br [Example 43, (3aR,6aR)-5-(6-bromo-5-methoxy-3-pyridinyl)octahydropyrrolo[3,4-b]pyrrole] | 0.3 | 6.2 | 
9 | Clc1ccc(N2C[C@H]3CCNC[C@H]32)cn1 [Example 47, (1S,6R)-8-(6-chloro-3-pyridinyl)-3,8-diazabicyclo[4.2.0]octane difumarate] |  | 1.9 | 0.8
10 | N#Cc1cncc(N2C[C@@H]3CCNC[C@@H]32)c1 [Example 50, 5-[(1R,6S)-3,8-diazabicyclo[4.2.0]oct-8-yl]nicotinonitrile fumarate] | 0.51 | 6.2 | 
11 | N#Cc1cc(N2C[C@H]3CCN[C@H]3C2)cnc1Br [Example 51, 5-((3aR,6aR)-hexahydropyrrolo[3,4-b]pyrrol-5(1H)-yl)-2-bromonicotinonitrile fumarate] | 0.12 | 0.62 | 
12 | c1cncc(N2C[C@H]3CNC[C@H]32)c1 [Example 52, (1R,5S)-6-(3-pyridinyl)-3,6-diazabicyclo[3.2.0]heptane fumarate] | 1.3 | 19 | 
13 | Brc1cncc(N2C[C@H]3CNC[C@H]32)c1 [Example 53, (1R,5S)-6-(5-bromo-3-pyridinyl)-3,6-diazabicyclo[3.2.0]heptane fumarate] | 3.1 | > 19 | 
14 | Clc1ccc(N2C[C@@H]3CNC[C@@H]32)cn1 [Example 54, (1S,5R)-6-(6-chloro-3-pyridinyl)-3,6-diazabicyclo[3.2.0]heptane fumarate] | 1.3 | 1.9 | 
15 | c1cncc(N2C[C@@H]3CNC[C@@H]32)c1 [Example 55, (1S,5R)-6-(3-pyridinyl)-3,6-diazabicyclo[3.2.0]heptane fumarate] | 0.72 | > 19 | 
16 | C=Cc1cncc(N2C[C@H]3CCN[C@H]3C2)c1 [Example 56, (3aR,6aR)-5-(5-vinyl-3-pyridinyl)octahydropyrrolo[3,4-b]pyrrole dihydrochloride] | 0.62 | 1.9 | 

Row | Structure (SMILES) | Ki [1] [nM] | minimal effective dose (Male Sprague-Dawley rats) [µmol/kg] | Ki ([1]; [3H]-CYT 1.25 nM, whole rat brain membranes, 60 minutes at 4° C., IC50 converted to Ki by Cheng and Prusoff correction, read-out: Average Ki) [nM]
17 | Cc1cncc(N2C[C@H]3CCN[C@H]3C2)c1 [Example 58, (3aR,6aR)-5-(5-methyl-3-pyridinyl)octahydropyrrolo[3,4-b]pyrrole trihydrochloride] | 0.53 | 1.9 | 
18 | Cc1cc(N2C[C@H]3CCN[C@H]3C2)cnc1Br [Example 60, (3aR,6aR)-5-(6-bromo-5-methyl-3-pyridinyl)octahydropyrrolo[3,4-b]pyrrole dihydrochloride] | 0.11 | 0.62 | 
19 | CCc1cncc(N2C[C@H]3CCN[C@H]3C2)c1 [Example 63, (3aR,6aR)-5-(5-ethyl-3-pyridinyl)octahydropyrrolo[3,4-b]pyrrole] | 0.56 | > 19 | 
20 | OCc1cc(N2C[C@H]3CCN[C@H]3C2)cnc1Br [Example 64, [5-((3aR,6aR)-hexahydropyrrolo[3,4-b]pyrrol-5(1H)-yl)-2-bromo-3-pyridinyl]methanol fumarate] | 1.1 | > 19 | 
21 | C=Cc1cc(N2C[C@H]3CCN[C@H]3C2)cnc1Br [Example 65, (3aR,6aR)-5-(6-bromo-5-vinyl-3-pyridinyl)octahydropyrrolo[3,4-b]pyrrole dihydrochloride] | 3.1 | > 19 | 
22 | COCc1cc(N2C[C@H]3CCN[C@H]3C2)cnc1Br [Example 67, (3aR,6aR)-5-[6-bromo-5-(methoxymethyl)-3-pyridinyl]octahydropyrrolo[3,4-b]pyrrole fumarate] | 1 | 19 | 
23 | C#Cc1cncc(N2C[C@@H]3CNC[C@@H]32)c1 [Example 68, (1S,5R)-6-(5-ethynyl-3-pyridinyl)-3,6-diazabicyclo[3.2.0]heptane fumarate] | 0.61 | > 19 | 
24 | C=Cc1cncc(N2C[C@@H]3CNC[C@@H]32)c1 [Example 69, (1S,5R)-6-(5-vinyl-3-pyridinyl)-3,6-diazabicyclo[3.2.0]heptane fumarate] | 3.2 | > 19 | 
25 | N#Cc1cncc(N2C[C@@H]3CNC[C@@H]32)c1 [Example 70, 5-[(1S,5R)-3,6-diazabicyclo[3.2.0]hept-6-yl]nicotinonitrile fumarate] | 0.86 | > 19 | 
26 | Brc1cncc(N2C[C@@H]3CNC[C@@H]32)c1 [Example 71, (1S,5R)-6-(5-bromo-3-pyridinyl)-3,6-diazabicyclo[3.2.0]heptane] | 1.5 | > 19 | 
27 | C=Cc1cc(N2C[C@@H]3CNC[C@@H]32)cnc1Br [Example 72, (1S,5R)-6-(6-bromo-5-vinyl-3-pyridinyl)-3,6-diazabicyclo[3.2.0]heptane fumarate] | 0.6 | > 19 | 
28 | N#Cc1cncc(N2C[C@H]3CNC[C@H]32)c1 [Example 74, 5-[(1R,5S)-3,6-diazabicyclo[3.2.0]hept-6-yl]nicotinonitrile bis(4-methylbenzenesulfonate)] | 3.2 | 1.9 | 
29 | N#Cc1cc(N2C[C@H]3CNC[C@H]32)cnc1Br [Example 76, 2-bromo-5-[(1R,5S)-3,6-diazabicyclo[3.2.0]hept-6-yl]nicotinonitrile fumarate] | 0.28 | 1.9 | 
30 | Clc1cc(N2C[C@H]3CNC[C@H]32)cnc1Cl [Example 85, (1R,5S)-6-(5,6-dichloro-3-pyridinyl)-3,6-diazabicyclo[3.2.0]heptane fumarate] | 0.27 | > 19 | 
31 | COc1cncc(N2C[C@H]3CNC[C@H]32)c1 [Example 86, (1R,5S)-6-(5-methoxy-3-pyridinyl)-3,6-diazabicyclo[3.2.0]heptane 4-methylbenzenesulfonate] | 0.75 | > 19 | 
32 | Cc1cc(N2C[C@H]3CNC[C@H]32)cnc1Cl [Example 87, (1R,5S)-6-(6-chloro-5-methyl-3-pyridinyl)-3,6-diazabicyclo[3.2.0]heptane 4-methylbenzenesulfonate] | 0.2 | 6.2 | 

— patent US8119635B2, “Diazabicyclic central nervous system active agents” (Abbott Laboratories, priority 2000, dated 2012)
